MIC and Km data for eight molecules are collected here from publication PMC5155152, “A diverse intrinsic antibiotic resistome from a cave bacterium” (Nature Communications, 2016).

Values after ≈ are worked out from the molar mass of the structure shown. Like-named read-outs stand apart in the source and are kept apart here. Bridge positions count the residues as written; N and C are the ends. Square brackets hold non-standard residues; d marks the D form. Peptide text beside a SMILES is read from it. * marks the point of attachment. Ileψ(thiazoline)Cys = CC[C@H](C)[C@H](N)C1=N[C@H](C(=O)*)CS1; dOrn = NCCC[C@@H](N)C(=O)O

The test system of test [1] is T1, Paenibacillus sp. LC231.
T1 construct: LC231
Briefly: microbe, parasite or virus in culture. On the set-up: broth microdilution MIC, growth inhibition of Paenibacillus sp. LC231. The source says: (§1) We generated a quantitative antibiogram for Paenibacillus sp. LC231 for 40 different antibiotics that target diverse cellular processes and compared it with the susceptibility of a surface strain of Paenibacillus lautus ATCC 43898, the pathogen Staphylococcus aureus RN4220 and the environmental bacterium Kocuria rhizophila (formerly identified as Micrococcus luteus) (Supplementary Tables 1 and 2). […] Further experiments in this study investigate the molecular basis of resistance and not the contribution of each genetic determinant to the resistance phenotype of Paenibacillus sp. LC231. […] We focused our investigation on Paenibacillus sp. LC231 and determined that in addition to resistance to 14 classes of antibiotic, it inactivates 7 distinct classes.

A further test relates to T2, MphI.
T2 construct: recombinant in E. coli BL21(DE3), pET vector, Ni-NTA purified
Briefly: steady-state kinetics. The following applies: 400 μM tylosin, 50 mM HEPES pH 7.5, 40 mM KCl, 10 mM MgCl2, 25 °C. Type of test: biochemical, Paenibacillus sp. LC231.

In another test the test system is T3, AAC(6′)-34.
T3 construct: recombinant in E. coli BL21(DE3), pET vector, Ni-NTA purified
In words: CoA liberation with DTDP, steady-state kinetics. The format is biochemical, Paenibacillus sp. LC231. As to conditions: 25 mM MES pH 6.0, 1 mM EDTA, 25 °C.

A further test deals with T4, VatI.
T4 construct: recombinant in E. coli BL21(DE3), pET vector, Ni-NTA purified
In words: steady-state kinetics. Type of test: biochemical, Paenibacillus sp. LC231. The following applies: 100 μM flopristin, 50 mM HEPES pH 7.5, 150 mM NaCl, 0.1 mM EDTA, 25 °C.

In a further test the test system is T5, CpaA.
T5 construct: recombinant in E. coli BL21(DE3), pET vector, Ni-NTA purified
In words: spectrophotometric steady-state kinetics. The following applies: 5 μM capreomycin, 50 mM HEPES pH 7.5, 150 mM NaCl, 0.1 mM EDTA, room temperature. The format is biochemical, Paenibacillus sp. LC231.

Test [2] deals with T1, Paenibacillus sp. LC231. Briefly: microbe, parasite or virus in culture. On the set-up: antibacterial susceptibility, minimal inhibitory concentration (quantitative antibiogram).
Description: as §1

Usually Km stands for the concentration of substrate that gives half-maximal velocity.

In the test with Paenibacillus sp. LC231 [1], `CC[C@H](C)[C@H](N)C1=N[C@H](C(=O)N[C@@H](CC(C)C)C(=O)N[C@H](CCC(=O)O)C(=O)N[C@H](C(=O)N[C@H]2CCCCNC(=O)[C@H](CC(N)=O)NC(=O)[C@@H](CC(=O)O)NC(=O)[C@H](Cc3cnc[nH]3)NC(=O)[C@@H](Cc3ccccc3)NC(=O)[C@H]([C@@H](C)CC)NC(=O)[C@@H](CCCN)NC2=O)[C@@H](C)CC)CS1` [Bacitracin] ({Ileψ(thiazoline)Cys}-L[dE]IK[dOrn]I[dF]H[dD]N; lactam 4-C) gave an MIC of at least 128 µg/mL. In the test on Paenibacillus sp. LC231 [1], `CCCCCCCCCC(=O)N[C@@H](Cc1c[nH]c2ccccc12)C(=O)N[C@H](CC(N)=O)C(=O)N[C@@H](CC(=O)O)C(=O)N[C@@H]1C(=O)NCC(=O)N[C@@H](CCCN)C(=O)N[C@@H](CC(=O)O)C(=O)N[C@H](C)C(=O)N[C@@H](CC(=O)O)C(=O)NCC(=O)N[C@H](CO)C(=O)N[C@@H]([C@H](C)CC(=O)O)C(=O)N[C@@H](CC(=O)c2ccccc2N)C(=O)O[C@@H]1C` [Daptomycin] gave an MIC of 16 µg/mL (≈ 9.87 µM). As to `Nc1nc2c(ncn2[C@@H]2O[C@H](COP(=O)(O)OP(=O)(O)OP(=O)(O)O)[C@@H](O)[C@H]2O)c(=O)[nH]1` [GTP], in the test with MphI, the Michaelis-Menten constant (Km) came to 10 ± 1.8 µM. For the molecule `C=C(NC(=O)C(=C)NC(=O)c1csc(C2=N[C@@H]3c4csc(n4)[C@H]4NC(=O)c5csc(n5)[C@H]([C@](C)(O)[C@@H](C)O)NC(=O)[C@H]5CSC(=N5)/C(=C/C)NC(=O)[C@H]([C@@H](C)O)NC(=O)c5csc(n5)[C@]3(CC2)NC(=O)[C@H](C)NC(=O)C(=C)NC(=O)[C@H](C)NC(=O)[C@H]([C@@H](C)CC)N[C@@H]2C=Cc3c([C@H](C)O)cc(nc3[C@H]2O)C(=O)O[C@@H]4C)n1)C(N)=O` [Thiostrepton], the MIC against Paenibacillus sp. LC231 [1] worked out at 0.25 µg/mL (≈ 0.15 µM).

`CC(=O)SCCNC(=O)CCNC(=O)[C@H](O)C(C)(C)COP(=O)(O)OP(=O)(O)OC[C@H]1O[C@@H](n2cnc3c(N)ncnc32)[C@H](O)[C@@H]1OP(=O)(O)O` [acetyl-CoA]: the Km came to 220 ± 26 µM in the test on AAC(6′)-34 (35 μM sisomicin), 48 ± 3 µM with VatI and 39 ± 3 µM in the test with CpaA. As for `C[C@H]1O[C@H](O[C@H]2[C@H](O)[C@@H](O)[C@@H](O)[C@H](O)[C@@H]2O)[C@@H](N)C[C@@H]1N=C(N)C(=O)O` [kasugamycin], in the test on Paenibacillus sp. LC231 [1], the MIC was at least 128 µg/mL. Regarding `CN[C@@H]1[C@@H](O)[C@@H](O[C@@H]2[C@@H](O)[C@H](O[C@H]3OC(CN)=CC[C@H]3N)[C@@H](N)C[C@H]2N)OC[C@]1(C)O` [sisomicin], the Km in the test with AAC(6′)-34 (500 μM acetyl-CoA) stood at 4.7 ± 0.4 µM. `CC[C@H]1OC(=O)C[C@@H](O)[C@H](C)[C@@H](O[C@@H]2O[C@H](C)[C@@H](O[C@H]3C[C@@](C)(O)[C@@H](O)[C@H](C)O3)[C@H](N(C)C)[C@H]2O)[C@@H](CC=O)C[C@@H](C)C(=O)/C=C/C(C)=C/[C@@H]1CO[C@@H]1O[C@H](C)[C@@H](O)[C@@H](OC)[C@H]1OC` [tylosin]: in the test with Paenibacillus sp. LC231 [2], the MIC was determined as 16 µg/mL (≈ 17.5 µM).
